Experimental data published in PMC11532494 (Nature Communications, 2024).
Where “and” joins values, the source holds several entries; their conditions need not be identical. Identical values can stand only once. Like-named read-outs stand apart in the source and are kept apart here. No end group written: not given here. *: point of attachment. AMC = Cc1cc(=O)oc2cc(N*)ccc12

Legend:
RwDmhA (1b) [1] = target: T1, RwDmhA (1b) (Rhizorhabdus wittichii, UniProt A0A067XIQ6); format: biochemical; details: RwDmhA (1b) 3µM; single samples (replicates)
Target sequence in this assay (A0A067XIQ6 1-369): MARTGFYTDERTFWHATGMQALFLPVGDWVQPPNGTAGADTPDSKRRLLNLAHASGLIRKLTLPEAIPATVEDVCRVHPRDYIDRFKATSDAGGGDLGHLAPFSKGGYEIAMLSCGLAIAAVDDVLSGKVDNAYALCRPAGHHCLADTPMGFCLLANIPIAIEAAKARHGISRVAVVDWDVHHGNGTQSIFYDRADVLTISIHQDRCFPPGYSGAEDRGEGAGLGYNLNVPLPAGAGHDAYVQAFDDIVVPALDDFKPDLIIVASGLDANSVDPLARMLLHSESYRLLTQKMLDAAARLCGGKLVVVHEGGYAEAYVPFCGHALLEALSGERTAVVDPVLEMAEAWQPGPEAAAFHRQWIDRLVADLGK

KpHdaH (1b) [2] = target: T2, KpHdaH (1b) (Klebsiella pneumoniae, UniProt A0A377Z5F6); format: biochemical; details: KpKDAC (1b); single samples (replicates)
Target sequence in this assay (A0A377Z5F6 1-371): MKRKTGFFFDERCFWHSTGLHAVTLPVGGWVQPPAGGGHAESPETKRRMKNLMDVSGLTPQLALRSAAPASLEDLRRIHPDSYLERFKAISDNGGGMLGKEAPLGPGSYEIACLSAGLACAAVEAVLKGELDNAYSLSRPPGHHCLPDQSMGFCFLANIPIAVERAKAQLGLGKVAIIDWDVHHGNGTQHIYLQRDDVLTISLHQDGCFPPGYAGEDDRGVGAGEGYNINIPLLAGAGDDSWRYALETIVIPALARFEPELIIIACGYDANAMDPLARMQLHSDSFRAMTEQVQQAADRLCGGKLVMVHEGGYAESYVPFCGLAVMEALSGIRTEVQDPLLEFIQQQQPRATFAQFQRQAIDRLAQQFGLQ

VcHdaH (5b) [3] = experiment: Acetyl-polyamine deacetylase assay; format: biochemical, Vibrio cholerae; details: VcHdaH (5b) 6µM; single samples (replicates)
PA1409 = PA1409 (Pseudomonas aeruginosa, UniProt Q9I3T5); experiment: Acetyl-polyamine deacetylase assay (positive control); format: biochemical; details: PA1409 (positive control enzyme); single samples (replicates)
PA1409, sequence (Q9I3T5 whole entry): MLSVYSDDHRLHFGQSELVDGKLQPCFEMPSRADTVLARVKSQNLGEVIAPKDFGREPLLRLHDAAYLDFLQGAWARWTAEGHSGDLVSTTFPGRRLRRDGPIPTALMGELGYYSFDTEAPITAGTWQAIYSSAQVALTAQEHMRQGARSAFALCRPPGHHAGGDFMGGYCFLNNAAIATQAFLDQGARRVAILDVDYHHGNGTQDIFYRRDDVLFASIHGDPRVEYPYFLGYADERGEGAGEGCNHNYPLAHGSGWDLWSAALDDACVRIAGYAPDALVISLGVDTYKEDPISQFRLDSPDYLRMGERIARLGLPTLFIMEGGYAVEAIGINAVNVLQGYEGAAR

RsPrpH (1b) [4] = experiment: Acetyl-polyamine deacetylase assay; format: biochemical, Rhizorhabdus sp.; details: RsPrpH 3µM; single samples (replicates)
BsAcuC (2c) [5] = target: T3, BsAcuC (2c) (Bacillus subtilis, UniProt P39067); experiment: Acetyl-polyamine deacetylase assay; format: biochemical; details: BsAcuC (2c) 3µM; single samples (replicates)
T3 construct: made in house; host or cells: E. coli BL21 (DE3)
T3 sequence (P39067 1-387): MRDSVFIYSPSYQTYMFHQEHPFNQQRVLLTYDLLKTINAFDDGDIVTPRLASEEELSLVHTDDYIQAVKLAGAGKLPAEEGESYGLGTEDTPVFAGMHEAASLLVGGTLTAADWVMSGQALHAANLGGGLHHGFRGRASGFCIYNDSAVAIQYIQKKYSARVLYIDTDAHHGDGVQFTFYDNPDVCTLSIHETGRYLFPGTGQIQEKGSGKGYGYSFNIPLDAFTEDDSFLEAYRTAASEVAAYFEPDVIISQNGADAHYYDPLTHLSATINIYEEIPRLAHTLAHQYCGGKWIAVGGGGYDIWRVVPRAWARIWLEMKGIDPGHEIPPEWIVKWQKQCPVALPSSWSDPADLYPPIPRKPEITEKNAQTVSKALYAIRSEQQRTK

VsHdaH (1b) [6] = format: biochemical, Vibrio sp.; details: VsHdaH (1b) 3µM; single samples (replicates)
Controls = experiment: Substrate screening assay (acyl-peptide-AMC), control enzymes; format: biochemical; details: for [AMC]: Transform RFU in [AMC]
VsHdaH (1b) [7] = format: biochemical, Vibrio sp.; details: VKDAC
KpHdaH (1b) [8] = target: T2, KpHdaH (1b); format: biochemical; details: KpHdaH (1b)
LcApaH (3) = LcApaH (3) (Legionella cherrii, UniProt A0A0W0SGS1); format: biochemical
PsApaH (4) = PsApaH (4) (Pseudomonas sp. M30-35, UniProt A0A1Y0KY79); format: biochemical; details: PsApaH (4)
Procedure: (§1) Experiments with SIRT2 and SIRT5 were supplemented with NAD^+ (500 µM). Thereafter, a solution of trypsin (25 µL, 5.0 mg/mL; final concentration of 2.5 mg/mL) was added, and the development of the assay was allowed to proceed for 90 min at room temperature before fluorescence analysis. […] To this end, a single category is given to all conversions >48% on the heatmap. […] For the H4-derived peptide LGKbio no positive control was available.

RsPrpH (1b) [9] = experiment: Substrate screening assay (acyl-peptide-AMC); format: biochemical, Rhizorhabdus sp.; details: RsPrpH (1b); for [AMC]: Transform RFU in [AMC]
VcHdaH (5b) [10] = format: biochemical, Vibrio cholerae; details: VcHdaH (5b); for [AMC]: Transform RFU in [AMC]
RwDmhA (1b) [11] = target: T1, RwDmhA (1b); format: biochemical; details: RwDmhA (1b)
BsAcuC (2c) [12] = target: T3, BsAcuC (2c); experiment: Substrate screening assay (acyl-peptide-AMC); format: biochemical; details: BsAcuC (2c); for [AMC]: Transform RFU in [AMC]
Procedure: as §1

## CC(=O)NCCCNCCCCNCCCN [N1-acetyl-spermine]
RwDmhA (1b) [1]
  acetate released, g/l: 0.0001305 g/L
  acetate released, mM: 0.002174 mM and -0.002174 mM
  mM normalized to enzyme concentration: -0.01812 mM and 0.0007246 mM and -0.0007246 mM
KpHdaH (1b) [2]
  acetate released, g/l: 0.02153 g/L and 0.02371 g/L and 0.03188 g/L
  acetate released, mM: 0.3585 mM and 0.3948 mM and 0.5309 mM
  mM normalized to enzyme concentration: 0.07169 mM and 0.07895 mM and 0.1062 mM
VcHdaH (5b) [3]
  acetate released, g/l: -0.0009138 g/L and -0.003003 g/L and -0.003264 g/L
  acetate released, mM: -0.01522 mM and -0.05 mM and -0.05435 mM
  mM normalized to enzyme concentration: -0.002536 mM and -0.008333 mM and -0.009058 mM
PA1409
  acetate released, g/l: 0.1471 g/L and 0.1516 g/L
  acetate released, mM: 2.449 mM and 2.524 mM
  mM normalized to enzyme concentration: 24.4938 mM and 25.2427 mM
RsPrpH (1b) [4]
  acetate released, g/l: -0.0006527 g/L and -0.0001305 g/L and -0.004569 g/L
  acetate released, mM: -0.01087 mM and -0.002174 mM and -0.07609 mM
  mM normalized to enzyme concentration: -0.003623 mM and -0.0007246 mM and -0.02536 mM
BsAcuC (2c) [5]
  acetate released, g/l: 0.002742 g/L and 0.0001305 g/L
  acetate released, mM: 0.04565 mM and 0.002174 mM
  mM normalized to enzyme concentration: 0.01522 mM and 0.0007246 mM
VsHdaH (1b) [6]
  acetate released, g/l: -0.003525 g/L and 0.003264 g/L and 0.003525 g/L
  acetate released, mM: -0.0587 mM and 0.05435 mM and 0.0587 mM
  mM normalized to enzyme concentration: -0.01957 mM and 0.01812 mM and 0.01957 mM

## QPKKdec (QPKK-{AMC}; not fully specified (residue 4); printed as QPKKdec; also: decanoyl-lysine (which Lys not given here); UniProt P04637 317-320, looked up, fragment)
Controls
  Relative Fluorescene Units (RFU): 14990 RFU and 17431 RFU
Controls; Controls, Sample 1
  [AMC]: 14.63867 µM
Controls; Controls, Sample 2
  [AMC]: 17.02246 µM
Controls; Transform RFU*2, Controls, Sample 1
  Relative Fluorescene Units (RFU): 29980 RFU
Controls; Transform RFU*2, Controls, Sample 2
  Relative Fluorescene Units (RFU): 34862 RFU
VsHdaH (1b) [7]; Transform RFU*2, Sample 1
  Relative Fluorescene Units (RFU): 126 RFU
VsHdaH (1b) [7]; Transform RFU*2, Sample 2
  Relative Fluorescene Units (RFU): 202 RFU
VsHdaH (1b) [7]; Sample 1
  Relative Fluorescene Units (RFU): 63 RFU
VsHdaH (1b) [7]; Sample 2
  Relative Fluorescene Units (RFU): 101 RFU
KpHdaH (1b) [8]; Sample 1
  Relative Fluorescene Units (RFU): 50 RFU
KpHdaH (1b) [8]; Sample 2
  Relative Fluorescene Units (RFU): 66 RFU
KpHdaH (1b) [8]; Transform RFU*2, Sample 1
  Relative Fluorescene Units (RFU): 100 RFU
KpHdaH (1b) [8]; Transform RFU*2, Sample 2
  Relative Fluorescene Units (RFU): 132 RFU
LcApaH (3)
  [AMC]: 143.55 nM and 182.62 nM
PsApaH (4); Sample 1
  Relative Fluorescene Units (RFU): 94 RFU
PsApaH (4); Sample 2
  Relative Fluorescene Units (RFU): 100 RFU
PsApaH (4); Transform RFU*2, Sample 1
  Relative Fluorescene Units (RFU): 188 RFU
PsApaH (4); Transform RFU*2, Sample 2
  Relative Fluorescene Units (RFU): 200 RFU
RsPrpH (1b) [9]; Sample 1
  Relative Fluorescene Units (RFU): 32 RFU
  [AMC]: 31.25 nM
RsPrpH (1b) [9]; Sample 2
  Relative Fluorescene Units (RFU): 43 RFU
  [AMC]: 41.99 nM
RsPrpH (1b) [9]; Transform RFU*2, Sample 1
  Relative Fluorescene Units (RFU): 64 RFU
RsPrpH (1b) [9]; Transform RFU*2, Sample 2
  Relative Fluorescene Units (RFU): 86 RFU
VcHdaH (5b) [10]; Sample 1
  [AMC]: 77.15 nM
  Relative Fluorescene Units (RFU): 79 RFU
VcHdaH (5b) [10]; Sample 2
  [AMC]: 27.34 nM
  Relative Fluorescene Units (RFU): 28 RFU
VcHdaH (5b) [10]; Transform RFU*2, Sample 1
  Relative Fluorescene Units (RFU): 158 RFU
VcHdaH (5b) [10]; Transform RFU*2, Sample 2
  Relative Fluorescene Units (RFU): 56 RFU
RwDmhA (1b) [11]; Sample 1
  Relative Fluorescene Units (RFU): 19 RFU
RwDmhA (1b) [11]; Sample 2
  Relative Fluorescene Units (RFU): 47 RFU
RwDmhA (1b) [11]; Transform RFU*2, Sample 1
  Relative Fluorescene Units (RFU): 38 RFU
RwDmhA (1b) [11]; Transform RFU*2, Sample 2
  Relative Fluorescene Units (RFU): 94 RFU
BsAcuC (2c) [12]; Sample 1
  Relative Fluorescene Units (RFU): 1598 RFU
  [AMC]: 1560.55 nM
BsAcuC (2c) [12]; Sample 2
  Relative Fluorescene Units (RFU): 1156 RFU
  [AMC]: 1128.91 nM
BsAcuC (2c) [12]; Transform RFU*2, Sample 1
  Relative Fluorescene Units (RFU): 3196 RFU
BsAcuC (2c) [12]; Transform RFU*2, Sample 2
  Relative Fluorescene Units (RFU): 2312 RFU
